Laboratory results as given in patent US20220340547A1, “INDOLE DERIVATIVE-CONTAINING INHIBITOR, PREPARATION METHOD THEREFOR AND APPLICATION THEREOF” (Shanghi Hansoh Biosoh Biomedical Co., Ltd., priority 2019, published 2022).

What was measured:
[1] = biological target: EGFR WT (Homo sapiens, UniProt P00533); assay: TR-FRET inhibition of kinase activity of wild type EGFR; assay type: biochemical
From the text: Determination of the Inhibitory Effect of the Compound of the Present Invention on the Kinase Activity of Wild Type EGFR
Experimental objective: The objective of this test example is to determine the inhibitory effect of the compound on the kinase activity of wild type EGFR.
(§1) Experimental process: The experiment applied the TR-FRET (time-resolved fluorescence resonance energy transfer) method to study the inhibitory effect of the compound on the kinase activity of wild type EGFR. The experiment was carried out in a 384-well plate. Experimental buffer (50 mM HEPES, 1 mM EGTA, 10 mM MgCl2, 2 mM DTT, 0.01% Tween-20) was formulated. The compound was diluted in gradient to different concentrations with the experimental buffer. 2 μL of the solution was added to each well of the 384-well plate. 4 μL of diluted EGFR kinase solution (0.001-0.5 nM) was added, and the plate was incubated at room temperature for 10 minutes. 4 μL of ULight-poly GT/ATP mixed solution was added, and the plate was incubated at room temperature for 30 to 60 minutes. 5 μL of EDTA stop solution and 5 μL of Eu-labeled antibody detection solution were added, and the plate was incubated at room temperature for 1 hour.
(§2) Experimental Data Processing Method:
(§3) The concentration and inhibition rate were fitted to a nonlinear regression curve by Graphpad Prism software to obtain the IC50 value.

[2] = biological target: Ba/F3 EGFR-D770-N771ins_SVD (Homo sapiens, UniProt P00533, DUP768-770, cells depend on it); assay: Proliferation of Ba/F3 EGFR mutant cell line (CellTiter-Glo); assay type: cell-based, mouse; settings: 72 h to 144 h, read-out: Ba/F3 EGFR-D770-N771ins_SVD IC50
Protocol: Determination of the Inhibitory Effect of the Compound of the Present Invention on the Proliferation of Ba/F3 EGFR Mutant Cell Line and A431 Cell Line
(§4) Experimental objective: The objective of this test example is to determine the inhibitory effect of the compound on the proliferation of Ba/F3 EGFR mutant cell line and A431 cell line
(§5) Experimental instruments: Microplate reader (BioTek Synergy H1), pipette (Eppendorf & Rainin).
Ba/F3 EGFR mutant cells were cultured, and harvested after reaching a suitable density. The cells were adjusted to an appropriate cell concentration with the complete medium. The cell suspension were spread on a 96-well plate (90 μL per well), and the plate was placed in a 37° C., 5% CO2 incubator overnight to let the cells adhere to the wall. Solutions of the compound at different concentrations were formulated with DMSO and culture medium. Solvent control was set. […] CellTiter-Glo solution was added and mixed well by shaking, and the plate was incubated in the dark for 10 minutes. The values were measured by BioTek Synergy H1 microplate reader.
as §2
(§6) The inhibition rate was calculated using the […] signal value. The concentration and inhibition rate were fitted to a nonlinear regression curve by Graphpad Prism software to obtain the IC50 value.

[3] = biological target: EGFR D770_N771insNPG (Homo sapiens, UniProt P00533, INS770NPG); assay: TR-FRET inhibition of kinase activity of EGFR exon 20 insertion mutation; assay type: biochemical
From the text: Determination of the Inhibitory Effect of the Compound of the Present Invention on the Kinase Activity of EGFR Exon 20 Insertion Mutation
Experimental objective: The objective of this test example is to determine the inhibitory effect of the compound on the kinase activity of EGFR exon 20 insertion mutation.
as §1, with “of EGFR exon 20 insertion mutation.” for “of wild type EGFR.”, “buffer. 2.5” for “buffer. 2”, “plate. 2.5” for “plate. 4”, “minutes. 5” for “minutes. 4”
as §2, §3

[4] = tested on: A431 cell line; assay: Proliferation of A431 cell line (CellTiter-Glo); assay type: cell-based; settings: Homo sapiens, A-431, 72 h
Protocol: Test Example 3. Determination of the Inhibitory Effect of the Compound of the Present Invention on the Proliferation of Ba/F3 EGFR Mutant Cell Line and A431 Cell Line
as §4, §5
A431 cells were cultured, and harvested after reaching a suitable density. The cells were adjusted to an appropriate cell concentration with the complete medium. The cell suspension were spread on a 96-well plate (90 μL per well), and the plate was placed in a 37° C., 5% CO2 incubator overnight to let the cells adhere to the wall. Solutions of the compound at different concentrations were formulated with DMSO and culture medium. Solvent control was set. The solution of the compound was added to the 96-well plate ([…]), and the plate was incubated in the 37° C., 5% CO2 incubator for 72 h. CellTiter-Glo solution was added and mixed well by shaking, and the plate was incubated in the dark for 10 minutes. The values were measured by BioTek Synergy H1 microplate reader.
as §2, §6

EGFR WT, sequence (P00533 25-1210): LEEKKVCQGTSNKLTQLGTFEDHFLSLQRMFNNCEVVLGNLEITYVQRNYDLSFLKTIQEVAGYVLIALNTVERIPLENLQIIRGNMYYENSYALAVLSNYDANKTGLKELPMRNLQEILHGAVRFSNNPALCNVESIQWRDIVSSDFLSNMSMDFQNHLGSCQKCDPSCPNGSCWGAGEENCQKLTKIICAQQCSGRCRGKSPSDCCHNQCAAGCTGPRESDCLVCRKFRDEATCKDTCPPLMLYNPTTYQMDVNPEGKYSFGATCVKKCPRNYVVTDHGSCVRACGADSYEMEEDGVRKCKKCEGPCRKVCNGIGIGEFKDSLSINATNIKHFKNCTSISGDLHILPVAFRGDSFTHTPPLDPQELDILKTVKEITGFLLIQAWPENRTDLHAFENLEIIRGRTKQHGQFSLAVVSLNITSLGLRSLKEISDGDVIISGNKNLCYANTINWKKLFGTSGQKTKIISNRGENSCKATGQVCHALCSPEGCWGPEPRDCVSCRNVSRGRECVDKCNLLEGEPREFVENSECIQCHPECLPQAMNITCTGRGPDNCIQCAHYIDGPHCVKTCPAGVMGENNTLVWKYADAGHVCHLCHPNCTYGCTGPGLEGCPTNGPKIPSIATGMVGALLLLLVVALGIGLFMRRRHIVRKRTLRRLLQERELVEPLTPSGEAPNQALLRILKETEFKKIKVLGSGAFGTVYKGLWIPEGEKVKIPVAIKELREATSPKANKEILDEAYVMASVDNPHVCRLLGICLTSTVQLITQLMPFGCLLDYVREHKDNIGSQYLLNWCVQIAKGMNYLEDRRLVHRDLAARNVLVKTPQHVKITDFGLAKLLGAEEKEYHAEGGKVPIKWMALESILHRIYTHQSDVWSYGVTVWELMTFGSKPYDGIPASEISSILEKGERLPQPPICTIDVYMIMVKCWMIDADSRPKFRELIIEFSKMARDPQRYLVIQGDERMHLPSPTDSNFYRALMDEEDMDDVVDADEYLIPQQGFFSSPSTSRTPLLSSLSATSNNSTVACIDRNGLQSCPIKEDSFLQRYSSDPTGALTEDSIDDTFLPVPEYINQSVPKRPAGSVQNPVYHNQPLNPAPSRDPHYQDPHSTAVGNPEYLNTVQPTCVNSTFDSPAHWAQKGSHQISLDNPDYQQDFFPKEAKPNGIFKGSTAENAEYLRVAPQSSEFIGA
Ba/F3 EGFR-D770-N771ins_SVD, sequence (P00533 with tags, fused parts or gaps DUP768-770): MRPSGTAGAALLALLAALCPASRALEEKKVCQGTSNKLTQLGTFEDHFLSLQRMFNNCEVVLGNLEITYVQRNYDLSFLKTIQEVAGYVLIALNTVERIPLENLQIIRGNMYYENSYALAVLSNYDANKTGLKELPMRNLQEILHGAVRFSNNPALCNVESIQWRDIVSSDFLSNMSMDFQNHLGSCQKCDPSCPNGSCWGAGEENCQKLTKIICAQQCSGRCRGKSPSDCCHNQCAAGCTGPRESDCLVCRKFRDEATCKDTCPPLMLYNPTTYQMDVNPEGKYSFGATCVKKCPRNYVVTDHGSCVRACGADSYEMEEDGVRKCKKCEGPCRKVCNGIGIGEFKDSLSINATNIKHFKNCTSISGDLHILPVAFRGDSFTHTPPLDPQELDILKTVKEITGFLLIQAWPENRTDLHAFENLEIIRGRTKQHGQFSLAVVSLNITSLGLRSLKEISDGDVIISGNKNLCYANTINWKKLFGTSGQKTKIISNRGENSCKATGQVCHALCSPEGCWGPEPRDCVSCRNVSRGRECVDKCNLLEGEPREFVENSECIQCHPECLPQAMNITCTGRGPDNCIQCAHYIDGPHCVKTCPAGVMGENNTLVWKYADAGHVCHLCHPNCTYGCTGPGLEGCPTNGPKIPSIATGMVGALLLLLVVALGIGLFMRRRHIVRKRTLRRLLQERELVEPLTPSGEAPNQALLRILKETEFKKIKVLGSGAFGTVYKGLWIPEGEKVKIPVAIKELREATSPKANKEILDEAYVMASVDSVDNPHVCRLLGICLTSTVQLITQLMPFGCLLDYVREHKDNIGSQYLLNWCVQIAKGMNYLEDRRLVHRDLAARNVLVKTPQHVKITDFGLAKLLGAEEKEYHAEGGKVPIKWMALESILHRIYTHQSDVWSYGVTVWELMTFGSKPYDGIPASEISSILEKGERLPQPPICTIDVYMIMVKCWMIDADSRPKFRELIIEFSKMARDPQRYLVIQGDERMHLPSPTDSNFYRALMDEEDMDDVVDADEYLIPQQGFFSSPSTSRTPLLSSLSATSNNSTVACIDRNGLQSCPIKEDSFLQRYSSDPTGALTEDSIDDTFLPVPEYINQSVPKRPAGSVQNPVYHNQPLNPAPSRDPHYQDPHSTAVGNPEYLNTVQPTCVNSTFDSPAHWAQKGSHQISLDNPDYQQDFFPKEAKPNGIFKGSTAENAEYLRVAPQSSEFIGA
EGFR D770_N771insNPG, sequence (P00533 with tags, fused parts or gaps INS770NPG limits assumed): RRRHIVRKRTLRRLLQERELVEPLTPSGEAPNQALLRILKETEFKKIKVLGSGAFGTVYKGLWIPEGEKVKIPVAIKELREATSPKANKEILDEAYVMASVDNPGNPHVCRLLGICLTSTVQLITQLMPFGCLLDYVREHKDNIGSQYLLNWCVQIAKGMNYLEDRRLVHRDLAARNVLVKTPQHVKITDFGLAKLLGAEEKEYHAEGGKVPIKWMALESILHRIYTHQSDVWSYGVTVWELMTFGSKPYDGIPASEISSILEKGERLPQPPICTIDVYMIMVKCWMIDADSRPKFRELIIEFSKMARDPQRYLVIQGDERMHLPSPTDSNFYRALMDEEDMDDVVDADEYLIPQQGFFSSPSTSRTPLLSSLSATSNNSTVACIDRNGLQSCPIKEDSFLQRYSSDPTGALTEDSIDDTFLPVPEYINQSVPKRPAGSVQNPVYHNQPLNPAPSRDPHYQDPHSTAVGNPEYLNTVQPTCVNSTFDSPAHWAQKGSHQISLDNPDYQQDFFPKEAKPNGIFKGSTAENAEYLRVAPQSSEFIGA

Row | Structure (SMILES) | IC50 [1] | also measured
1 | CC#CC(=O)Nc1cc(Nc2ncc(C(F)(F)F)c(-c3cn(C4CC4)c4ccccc34)n2)c(OC)cc1N1C[C@H]2CN(C)C[C@H]2C1 [Example 30, N-(5-((4-(1-Cyclopropyl-1H-indol-3-yl)-5-(trifluoromethyl)pyrimidin-2-yl)amino)-4-methoxy-2-((3aR,6aS)-5-methylhexahydropyrrolo[3,4-c]pyrrol-2(1H)-yl)phenyl)but-2-ynamide] | 453 nM | –
2 | C=CC(=O)Nc1cc(Nc2ncc(C(=O)N(C)C)c(-c3cn(C)c4ccccc34)n2)c(OC)cc1N1C[C@H]2CN(C)C[C@H]2C1 [Example 31, 2-((5-Acrylamido-2-methoxy-4-((3aR,6aS)-5-methylhexahydropyrrolo[3,4-c]pyrrol-2(1H)-yl)phenyl)amino)-N,N-dimethyl-4-(1-methyl-1H-indol-3-yl)pyrimidine-5-carboxamide] | > 1000 nM | –
3 | C=CC(=O)Nc1cc(Nc2ncc(C#N)c(-c3cn(C4CC4)c4cccc(F)c34)n2)c(OC)cc1N(C)CCN(C)C [Example 120, N-(5-((5-Cyano-4-(1-cyclopropyl-4-fluoro-1H-indol-3-yl)pyrimidin-2-yl)amino)-2-((2-(dimethylamino)ethyl)(methyl)amino)-4-methoxyphenyl)acrylamide] | > 1000 nM | –
4 | C=CC(=O)Nc1cc(Nc2ncc(C#N)c(-c3cn(C4CC4)c4cc(OC)c(F)cc34)n2)c(OC)cc1N(C)CCN(C)C [Example 127, N-(5-((5-Cyano-4-(1-cyclopropyl-5-fluoro-6-methoxy-1H-indol-3-yl)pyrimidin-2-yl)amino)-2-((2-(dimethylamino)ethyl)(methyl)amino)-4-methoxyphenyl)acrylamide] | – | GI50 [2]: 13.4 nM; IC50 [3]: 0.18 nM; IC50 [4]: 46.6 nM
5 | C=CC(=O)Nc1cc(Nc2ncc(N=S(C)(C)=O)c(-c3cn(C)c4ccccc34)n2)c(OC)cc1N(C)CCN(C)C [Example 136, N-(5-((5-((Dimethyl(oxo)-λ^6-sulfaneylidene)amino)-4-(1-methyl-1H-indol-3-yl)pyrimidin-2-yl)amino)-2-((2-(dimethylamino)ethyl)(methyl)amino)-4-methoxyphenyl)acrylamide] | 250 nM | –
6 | C=CC(=O)Nc1cc(Nc2ncc(C#N)c(-c3cn(C4COC4)c4cc(OC)ccc34)n2)c(OC)cc1N(C)CCN(C)C [Example 137, N-(5-((5-Cyano-4-(6-methoxy-1-(oxetan-3-yl)-1H-indol-3-yl)pyrimidin-2-yl)amino)-2-((2-(dimethylamino)ethyl)(methyl)amino)-4-methoxyphenyl)acrylamide] | – | GI50 [2]: 9.78 nM; IC50 [3]: 0.16 nM; IC50 [4]: 18.2 nM
7 | C=CC(=O)Nc1cc(Nc2ncc(C#N)c(-n3nc(C)c4ccccc43)n2)c(OC)cc1N(C)CCN(C)C [Example 138, N-(5-((5-Cyano-4-(3-methyl-1H-indazol-1-yl)pyrimidin-2-yl)amino)-2-((2-(dimethylamino)ethyl)(methyl)amino)-4-methoxyphenyl)acrylamide] | > 1000 nM | –
8 | C=CC(=O)Nc1cc(Nc2ncc(C(=O)NCc3ccc(F)cc3)c(-c3cn(C)c4ccccc34)n2)c(OC)cc1N(C)CCN(C)C [Example 142, 2-((5-Acrylamido-4-((2-(dimethylamino)ethyl)(methyl)amino)-2-methoxyphenyl)amino)-N-(4-fluorobenzyl)-4-(1-methyl-1H-indol-3-yl)pyrimidine-5-carboxamide] | 133 nM | –

Further lines, with some results ahead:

Row | IC50 [1] | Structure (SMILES) | also measured
9 | 89.8 nM | C=CC(=O)Nc1cc(Nc2ncc(C(=O)OC)c(-c3cn(C)c4ccccc34)n2)c(OC)cc1N1C[C@@H]2C[C@H]1CN2C [Example 25, Methyl 2-((5-acrylamido-2-methoxy-4-((1S,4S)-5-methyl-2,5-diazabicyclo[2.2.1]heptan-2-yl)phenyl)amino)-4-(1-methyl-1H-indol-3-yl)pyrimidine-5-carboxylate] | –
10 | 121 nM | C=CC(=O)Nc1cc(Nc2ncc(C(F)(F)F)c(-c3cn(C4CC4)c4ccccc34)n2)c(OC)cc1N1C[C@H]2CN(C)C[C@H]2C1 [Example 27, N-(5-((4-(1-Cyclopropyl-1H-indol-3-yl)-5-(trifluoromethyl)pyrimidin-2-yl)amino)-4-methoxy-2-((3aR,6aS)-5-methylhexahydropyrrolo[3,4-c]pyrrol-2(1H)-yl)phenyl)acrylamide] | –
11 | 63.3 nM | C=CC(=O)Nc1cc(Nc2ncc(Br)c(-c3cn(C4CC4)c4ccccc34)n2)c(OC)cc1N1C[C@H]2CN(C)C[C@H]2C1 [Example 28, N-(5-((5-Bromo-4-(1-cyclopropyl-1H-indol-3-yl)pyrimidin-2-yl)amino)-4-methoxy-2-((3aR,6aS)-5-methylhexahydropyrrolo[3,4-c]pyrrol-2(1H)-yl)phenyl)acrylamide] | –
12 | 82.9 nM | C=CC(=O)Nc1cc(Nc2ncc(C(=O)NC3CC3)c(-c3cn(C)c4ccccc34)n2)c(OC)cc1N1C[C@H]2CN(C)C[C@H]2C1 [Example 32, 2-((5-Acrylamido-2-methoxy-4-((3aR,6aS)-5-methylhexahydropyrrolo[3,4-c]pyrrol-2(1H)-yl)phenyl)amino)-N-cyclopropyl-4-(1-methyl-1H-indol-3-yl)pyrimidine-5-carboxamide] | –
13 | 133 nM | C=CC(=O)Nc1cc(Nc2ncc(C(=O)NCc3ccccc3)c(-c3cn(C)c4ccccc34)n2)c(OC)cc1N(C)CCN(C)C [Example 33, 2-((5-Acrylamido-4-((2-(dimethylamino)ethyl)(methyl)amino)-2-methoxyphenyl)amino)-N-benzyl-4-(1-methyl-1H-indol-3-yl)pyrimidine-5-carboxamide] | –
14 | 72.7 nM | C=CC(=O)Nc1cc(Nc2ncc(-c3cccs3)c(-c3cn(C4CC4)c4ccccc34)n2)c(OC)cc1N1C[C@H]2CN(C)C[C@H]2C1 [Example 46, N-(5-((4-(1-Cyclopropyl-1H-indol-3-yl)-5-(thiophen-2-yl)pyrimidin-2-yl)amino)-4-methoxy-2-((3aR,6aS)-5-methylhexahydropyrrolo[3,4-c]pyrrol-2(1H)-yl)phenyl)acrylamide] | –
15 | 50.8 nM | C=C(F)C(=O)Nc1cc(Nc2ncc(-c3ncco3)c(-c3cn(C4CC4)c4ccccc34)n2)c(OC)cc1N1CC(N(C)C)C1 [Example 66, N-(5-((4-(1-Cyclopropyl-1H-indol-3-yl)-5-(oxazol-2-yl)pyrimidin-2-yl)amino)-2-(3-(dimethylamino)azetidin-1-yl)-4-methoxyphenyl)-2-fluoroacrylamide] | –
